Tests used:
Assay in all cases: drug sensitivity score (DSS), CellTiter-Glo (DSS (AUC-based score)); higher = stronger drug effect (viability inhibition or cytotoxicity); extreme values may be limits of the assay
Details in all cases: incubation time: 72 h
MDA-MB-468 = test system: MDA-MB-468
Procedure, shortened: (§1)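 Compound was dispensed into 384-well plates at 5 concentrations in 10-fold steps spanning a 10,000-fold range chosen for each compound, and 20 µl of breast cancer cell suspension was added before 72 h of incubation. CellTox Green fluorescence was read at 485/520 nm, followed by CellTiter-Glo luminescence after 10 min at room temperature. Values on each plate were normalised to 0.1 % DMSO and a positive kill control. The drug sensitivity score came from the area under the fitted dose-response curve.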

HCC1599 = test system: HCC1599
Procedure, shortened: as §1

BT-474 = test system: BT-474
Procedure, shortened: as §1

CAL-120 = test system: CAL-120
Procedure, shortened: as §1

BT-549 = test system: BT-549
Procedure, shortened: as §1

MCF-10A = test system: MCF-10A
Procedure, shortened: as §1

SK-BR-3 = test system: SK-BR-3
Procedure, shortened: as §1

MDA-MB-436 = test system: MDA-MB-436
Procedure, shortened: as §1

Hs578T = test system: Hs578T
Procedure, shortened: as §1

CAL-51 = test system: CAL-51
Procedure, shortened: as §1

DU-4475 = test system: DU-4475
Procedure, shortened: as §1

CAL-85-1 = test system: CAL-85-1
Procedure, shortened: as §1

Row | SMILES | drug sensitivity score (MDA-MB-468) | drug sensitivity score (HCC1599) | drug sensitivity score (BT-474) | drug sensitivity score (CAL-120) | drug sensitivity score (BT-549) | drug sensitivity score (MCF-10A) | drug sensitivity score (SK-BR-3) | drug sensitivity score (MDA-MB-436) | drug sensitivity score (Hs578T) | drug sensitivity score (CAL-51) | drug sensitivity score (DU-4475) | drug sensitivity score (CAL-85-1)
1 | CC(C)(C)Cn1c(N)nc2ccc(-c3[nH]c(C(C)(C)C)nc3-c3ccc(F)cc3)nc21 | 2.74 | 0 | 0.606 | 0.0489 | 1.72 | 3.14 | 0.963 | 0 | 0 | 0 | 0 | 0
2 | Cn1cc(C[C@@H](N)C(=O)O)c2ccccc21 [1-methyl-D-tryptophan] | 0 | 0 | 0 | 0 | 0 | 0 | 0 | 0 | 0 | 0 | 0 | 0
3 | CC[C@H](CC#N)OC(=O)N[C@@H](C)c1cccc(NC(=O)Nc2ccc(-c3cnco3)c(OC)c2)c1 [AVN944] | 17.1 | 11.4 | 8.56 | 8.08 | 15.9 | 8.88 | 9.68 | 12.9 | 10.1 | 16.5 | 13.4 | 13.1
4 | Cc1c(N)nc([C@H](CC(N)=O)NC[C@H](N)C(N)=O)nc1C(=O)N[C@H](C(=O)N[C@H](C)[C@@H](O)[C@H](C)C(=O)N[C@H](C(=O)NCCc1nc(-c2nc(C(=O)NCCC[S+](C)C)cs2)cs1)[C@@H](C)O)[C@@H](OC1OC(CO)C(O)C(O)C1OC1OC(CO)C(O)C(OC(N)=O)C1O)c1cnc[nH]1 (stereo partly drawn) [Bleomycin] | 0 | 0 | 0 | 0.67 | 8.65 | 0 | 2.43 | 4.49 | 0 | 16.1 | 0 | 0
5 | Cc1cc2c(F)c(Oc3ncnn4cc(OC[C@@H](C)O)c(C)c34)ccc2[nH]1 [Brivanib] | 0 | 0 | 0 | 0 | 0 | 0 | 0 | 0 | 0 | 1.49 | 0 | 0
6 | CCCCCOC(=O)Nc1nc(=O)n([C@@H]2O[C@H](C)[C@@H](O)[C@H]2O)cc1F [Capecitabine] | 0 | 0 | 0 | 0 | 0 | 0 | 0 | 0.812 | 0 | 0 | 0 | 0
7 | CC(C)C[C@H](NC(=O)[C@H](CCc1ccccc1)NC(=O)CN1CCOCC1)C(=O)N[C@@H](Cc1ccccc1)C(=O)N[C@@H](CC(C)C)C(=O)[C@@]1(C)CO1 [Carfilzomib] | 29.9 | 10.9 | 21.8 | 19 | 29.5 | 12.2 | 26.9 | 26.5 | 22.9 | 22.1 | 15.4 | 25.2
8 | Nc1nc(Cl)nc2c1ncn2[C@@H]1O[C@H](CO)[C@@H](O)[C@@H]1F [Clofarabine] | 11.7 | 9.47 | 5.27 | 4.58 | 14.3 | 5.94 | 12.7 | 16 | 1.74 | 17.6 | 6.22 | 10.6
9 | CCN(CC)CCOc1ccc(C(=C(Cl)c2ccccc2)c2ccccc2)cc1 [Clomifene] | 0 | 6.16 | 4.51 | 0 | 1.96 | 1.05 | 2.09 | 0 | 4.79 | 0 | 2.97 | 3.91
10 | C[C@@H]1C[C@H]2[C@@H]3CCC4=CC(=O)C=C[C@]4(C)[C@@]3(F)[C@@H](O)C[C@]2(C)[C@@]1(O)C(=O)CO [Dexamethasone] | 0 | 0 | 0 | 10.1 | 0 | 0 | 0 | 0 | 0 | 0 | 0 | 0
11 | CCc1cnn2c(NCc3ccc[n+]([O-])c3)cc(N3CCCC[C@H]3CCO)nc12 [Dinaciclib] | 18.3 | 19.8 | 18.3 | 13.6 | 19.6 | 12.9 | 25.1 | 20.7 | 18.7 | 20.6 | 16.6 | 25.4
12 | Cc1c(C(=O)Nc2ccc(N3C[C@@H](C)O[C@@H](C)C3)nc2)cccc1-c1ccc(OC(F)(F)F)cc1 [Erismodegib] | 1.28 | 0 | 3.21 | 0 | 1.37 | 0 | 0 | 2.73 | 0 | 4.99 | 0 | 0
13 | CC(C)C(=O)Nc1ccc([N+](=O)[O-])c(C(F)(F)F)c1 [Flutamide] | 0 | 0 | 0 | 0 | 0 | 0 | 0 | 0 | 0 | 0.0535 | 0 | 0
14 | COc1cc2c(Oc3ccc(NC(=O)C4(C(=O)Nc5ccc(F)cc5)CC4)cc3F)ccnc2cc1OCCCN1CCOCC1 [Foretinib] | 1.64 | 0 | 2.19 | 2.45 | 0 | 1.41 | 0 | 0.456 | 0 | 1.01 | 0 | 0

Reference: the supplement of paper PMC4862054
